Source: patent US6979675B2, “Treatment of cancer with 2-deoxyglucose” (Threshold Pharmaceuticals, Inc., priority 2003, dated 2005)
Where two headings read alike, the source gives them in different places.

Experiments:
[1] = test system: MV522 human tumor carcinomas; assay: Tumor growth delay study in mouse MV522 xenograft model (TH-PT-001)
Procedure: Female nude mice (nu/nu) between 5 and 6 weeks of age and weighing approximately 20 g were obtained from Harlan, Inc. (Madison, Wis.). Animals were implanted subcutaneously by trocar with fragments of Mv522 human tumor carcinomas harvested from subcutaneously growing tumors in nude mice hosts. When the tumors were approximately 71 mg in size (11 days following inoculation), the animals were pair-matched into treatment and control groups. Each group contained 10 tumored mice. Each mouse was ear-tagged and followed individually throughout the experiment. Initial doses were given on Day 1 following pair-matching. […] Sterile water was administered orally bid×5 to end to serve as the negative control. Mice were weighed twice weekly, and tumor measurements were obtained using calipers twice weekly, starting on Day 1. These tumor measurements were converted to mg tumor weight by the standard formula (W^2×L)/2. Each mouse was sacrificed when its tumor weight reached 1000 mg. In this test, the average day of sacrifice was determined for all groups and the tumor growth delay (TGD) for each treatment group, compared to the control group, was calculated.
All of these studies are outlined in the following table.

[2] = MTD study of combined 2-DG/cisplatin treatment versus cisplatin alone (TH-PT-002); details: cisplatin 2, 3, or 4 mg/kg/dose i.p. qd Days 6–10 with or without 2-DG 2000 mg/kg/dose oral qd days 1–10
Procedure: The maximum tolerated dose determination for this study was conducted using female nude mice (nu/nu) between 5 and 6 weeks of age weighing approximately 20 g (Harlan, Inc., Madison, Wis.). Dosing began on Day 1. […] […] Individual mouse weights in grams were recorded twice weekly throughout the study. The average weight per group was calculated, and weight gain or loss was determined by comparing the current Day's average to the Day 1 average for that same group. The study was terminated on Day 21.

HT-29 colon carcinoma = assay: MTS growth inhibition assay, single agent studies; assay type: cell-based; details: Homo sapiens, HT-29, 72 h, 3 days in culture
Procedure: (§1) Human tumor cell lines MiaPaCa-2 pancreatic carcinoma (mutant ras, gemcitabine sensitive) and HT-29 colon carcinoma (polyposis type, mutant p53 and APC, chemosensitive) were purchased from the ATCC (Rockville, Md.). […] Cells grown to 70% confluency were trypsinized and resuspended into cell culture medium at a concentration of 10^5 cells/ml. On Day 0 of the experiment, a […] aliquot of tumor cells was plated into internal wells of a 96-well microtiter plate at an appropriate density (in the range of 2×10^3 to 10^4 cells/well). The cells were incubated for 24 hours to allow maximum adhesion prior to exposure with test agents. […] The starting concentration and the test range of 5-FU were determined empirically for each cell line. Treatment with 5-FU started on Day 1. There were 6 replicates for each dose determination. Both drugs were added once without the medium change. After 3 days in culture, the number of proliferating cells was measured by the MTS assay described below. The test was repeated twice to quantify growth inhibitory activity. […] IC50 values were generated from two separate experiments. […] The MTS reagent is a tetrazolium compound and an electron coupling reagent. The MTS tetrazolium compound is bioreduced by cells into a colored formazan product soluble in cell culture medium. The conversion is catalyzed by NADPH or NADH produced by dehydrogenase enzymes in metabolically active cells. The MTS assay is a colorimetic assay based upon the ability of viable cells to convert […] to formazan; the quantity of formazan product, as measured by the 490 nm absorbance, is directly proportional to the number of viable cells in culture. An automated procedure determines the IC50 value. Exponentially growing cells in […] of cell culture medium are plated on Day 0 in 96-well microtiter plates at a concentration of 10^4 cells/well. […] At the end of the designated time period, 100 microL of growth medium is removed. […] Absorbance is documented on a Dynex HD microplate reader at a wavelength of 490 nm. The data was calculated as percent growth inhibition, wherein 0% represents the mean value in wells to which only vehicle (cell culture medium) was added. The % Growth Inhibition was calculated as follows: % Growth Inhibition=(1−(ODtest/ODvehicle)×100, where ODtest is the optical density of the tested sample, and ODvehicle is the optical density of the vehicle in which each respective drug is dissolved. […] To determine the interaction, there must be a significant difference that exists between the combination absorbance values and both endpoint values. For example, if the values are statistically (p<0.05) above or below the absorbance values of either agent tested alone, then antagonism or synergy is described. […]

[3] = test system: MiaPaCa-2 pancreatic carcinoma; assay: MTS growth inhibition assay, single agent studies; assay type: cell-based; details: Homo sapiens, MIA PaCa-2, 72 h, 3 days in culture
Procedure: as §1

MV522 cells = assay: Sulforhodamine B (SRB) growth inhibition assay; assay type: cell-based; details: Homo sapiens, 72 hours treatment
Procedure: (§2) The human lung tumor cell lines were MV522 and NCI-H23, both of which were derived from tumors displaying histopathology of adenocarcinoma, one of the at least three types of NSCLC. The NCI-H23 tumor cell line is available from the ATCC (Rockville, Md.), and the MV522 cell line was obtained by Dr. M. J. Kelner of the University of California. The cells were cultured in RPMI medium (Nova Tech, Grand Island, N.Y.) at 37° C. in a humidified atmosphere containing 5% CO2. For passaging, cells grown in 75 cm^2 flasks (60–70% confluency) were washed with PBS and dislodged from the flasks with trypsin (Gibco BRL) before being passaged. Cells used for the experiments described below were centrifuged and resuspended in cell culture medium at a concentration of 10^5 cells/mL. A 100 microliter aliquot (ten thousand cells) was plated into each well of a 96-well microtiter plate.
(§3) Docetaxel (Taxotere™, Aventis Pharmaceuticals, Inc.) solubilized in 100% DMSO and diluted 1000×to the desired concentration (0.1% DMSO final concentration), was used as a positive control. […] Exponentially growing cells in 100 microliters of cell culture medium were plated on Day 0 in 96-well microtiter plates at a concentration of 10^4 cells/well. On Day 1, drugs were added to each well of the microtiter plate with the designated concentration in 100 microliter aliquots of cell culture medium and incubated at 37° C. in a humidified incubator (5% CO2/95% HEPA filtered air). After three days of treatment, adherent cells were fixed by adding 50 microliters of cold 50% trichloracetic acid to each well and incubating for one hour at 4° C. The supernatant was discarded, and plates were washed twice with de-ionized water and air-dried. One hundred microliters of SRB solution were added to each well of the plate and incubated ten minutes at room temperature. Unbound SRB stain was removed by washing twice with 1% acetic acid. The bound SRB stain was solubilized with 10 mM Tris buffer, and the optical densities read at a single wavelength of 515 nm.
(§4) IC50 values (50% effective dose) were calculated from two different experiments, each of which involved 6 replicates for each dose tested. […]

NCI-H23 cells = assay: Sulforhodamine B (SRB) growth inhibition assay; assay type: cell-based; details: Homo sapiens, 72 hours treatment
Procedure: as §2, §3, §4

[4] = test system: MV522 non-small cell lung cancer (NSCLC) xenograft; assay: Third efficacy study, paclitaxel alone or with oral 2-DG, tumor growth delay (TH-PT-003); assay type: in vivo, nude mice; details: paclitaxel alone 10 mg/kg/dose i.p. days 6–10
Procedure: An increase in efficacy was defined as a significant (P<0.05) increase in the time for the tumor to grow to 1000 mg (tumor growth delay—TGD) compared to vehicle alone or, for combination treatment groups, chemotherapy alone, as calculated using a two-tailed t-test. Female nude mice, ten per treatment arm, were implanted subcutaneously (s.c.) with trocar fragments of MV522 tumors harvested from s.c. tumors growing in nude mice hosts. Body weights and tumor measurements were taken biweekly. When tumors reached ˜70 mg, treatment was started. Mice were sacrificed when their individual tumor reached ˜1000 mg. All doses are reported as mg/kg/dose. […] The mice were then dosed i.p. with 10 mg/kg/dose paclitaxel once a day on days 6–10. […] Dosing with paclitaxel began when the tumors were approximately 200 mg.

[5] = test system: H460, H23, H522 and H661 cells; assay: Inhibition of proliferation of NSCLC tumor cell lines; assay type: cell-based; details: most human NSCLC tumor cell lines
H2347 cells = assay: Inhibition of proliferation of Taxol-resistant cell line; assay type: cell-based; details: Homo sapiens, NCI-H2347
[6] = test system: human non-small cell lung cancer (NSCLC) tumor cell lines; assay: Proliferation with simultaneous 2-DG and Taxol treatment; assay type: cell-based
MV522 xenograft = assay: 2-DG/Paclitaxel dosing study in mouse MV522 xenograft model; assay type: in vivo
Procedure: The mouse MV522 xenograft model substantially as described in Example 2 was used to compare the effects of dosing 2-DG orally (in water) either at a single dose of 4 g/kg or in multiple doses (twice a day at 2 g/kg) in various combinations with paclitaxel dosed i.p. as a single dose (30 mg/kg) or in multiple doses (once daily at 10 mg/kg).

[7] = for deaths: bid×5
Procedure: The maximum tolerated dose determination for this study was conducted using female nude mice (nu/nu) between 5 and 6 weeks of age weighing approximately 20 g (Harlan, Inc., Madison, Wis.). Dosing began on Day 1. […] A 20 mL/kg dose volume was used to achieve doses of 2000, 4000, 6000, 8000, and 9000 mg/kg/dose. Individual mouse weights in grams were recorded twice weekly throughout the study. The average weight per group was calculated, and weight gain or loss was determined by comparing the current Day's average to the Day 1 average for that same group. The study was terminated on Day 21.

[8] = rat, in vivo
[9] = dog, in vivo

**Q.** For `N.N.[Cl][Pt][Cl]` [cisplatin, cis-Diaminedichloroplatinum (II)], which “TGD (tumor growth delay)” value ([1]; cisplatin 1 mg/kg i.p. Days 1–5) is on record?
**A.** 15.8 days

**Q.** And the “TGD (tumor growth delay)” value ([1]; cisplatin 2 mg/kg i.p. Days 1–5)?
**A.** 32.6 days

**Q.** What about the “mean day of sacrifice” value ([1]; cisplatin single agent 1 mg/kg i.p. Days 1–5) of the same molecule?
**A.** 42.3+/−0.9

**Q.** And the “mean day of sacrifice” value ([1]; cisplatin single agent 2 mg/kg i.p. Days 1–5)?
**A.** 59.1+/−5.7

**Q.** What about the complete regressions ([1]; high dose cisplatin group (2 mg/kg), 10 mice) of the same molecule?
**A.** Two mice

**Q.** What about the “deaths during the 21 days of the study” value [2] of the same molecule?
**A.** No mice died

**Q.** What does the source list for `O=c1[nH]cc(F)c(=O)[nH]1` [5-FU, 5-fluoro-2,4(1H,3H)-pyrimidinedione, reference compound]?
**A.** IC50 (HT-29 colon carcinoma): 1.9 µg/mL; IC50 [3]: 2.58 µg/mL

**Q.** Which results are given for `CC(=O)O[C@@]12CO[C@@H]1C[C@H](O)[C@@]1(C)C(=O)[C@H](O)C3=C(C)[C@@H](OC(=O)[C@H](O)[C@@H](NC(=O)OC(C)(C)C)c4ccccc4)C[C@@](O)([C@@H](OC(=O)c4ccccc4)[C@H]21)C3(C)C` [Docetaxel, reference compound]?
**A.** IC50 (MV522 cells): 0.00211 ± 0.000601 µM; IC50 (NCI-H23 cells): 0.00164 ± 0.000211 µM

**Q.** With `CC(=O)O[C@H]1C(=O)[C@@]2(C)[C@H]([C@H](OC(=O)c3ccccc3)[C@]3(O)C[C@H](OC(=O)[C@H](O)[C@@H](NC(=O)c4ccccc4)c4ccccc4)C(C)=C1C3(C)C)[C@]1(OC(C)=O)CO[C@@H]1C[C@@H]2O` [paclitaxel] as the molecule, how does the toxic deaths ([1]; paclitaxel 16 mg/kg i.p. Days 1–5) read?
**A.** no toxic deaths

**Q.** What about the complete regression ([1]; paclitaxel 16 mg/kg i.p. Days 1–5, 10 mice) of the same molecule?
**A.** one mouse experiencing a complete regression

**Q.** What about the “mean day of sacrifice” value ([1]; paclitaxel 16 mg/kg i.p. Days 1–5, sacrifice at tumor weight 1000 mg) of the same molecule?
**A.** 56.8+/−4.3

**Q.** And the “TGD (tumor growth delay)” value ([1]; paclitaxel 16 mg/kg i.p. Days 1–5, vs negative control)?
**A.** 34.4 days

**Q.** What about the deaths [4] of the same molecule?
**A.** One death per group

**Q.** What about the IC50 [5] of the same molecule?
**A.** 0.05 to 0.2 µM

**Q.** And the IC50 (H2347 cells)?
**A.** > 1 µM

**Q.** And the inhibition of proliferation ([6]; 200 nM Taxol alone, one test)?
**A.** ~20%

**Q.** What about the “efficacy of single dose 30 mg/kg versus 5 doses at 10 mg/kg” value (MV522 xenograft; paclitaxel i.p.) of the same molecule?
**A.** more effective

**Q.** Which IC50 (MV522 cells) does the source give for `O=CC[C@@H](O)[C@H](O)[C@H](O)CO` [2-DG, 2-deoxy-D-glucose] here?
**A.** 3740 ± 740 µM

**Q.** And the IC50 (NCI-H23 cells)?
**A.** 1860 ± 532 µM

**Q.** What about the tumor growth rate ([1]; 2-DG single agent 0–2000 mg/kg/dose, twice a day) of the same molecule?
**A.** did not slow the tumor growth rate

**Q.** What about the “mean day of sacrifice” value ([1]; 2-DG single agent 750 mg/kg p.o. bid×5 to end) of the same molecule?
**A.** 28.9+/−3.7

**Q.** And the “mean day of sacrifice” value ([1]; 2-DG single agent 1000 mg/kg p.o. (Days 1–14 dose 50 mg/kg) bid×5 to end)?
**A.** 27.2+/−2.7

**Q.** And the “mean day of sacrifice” value ([1]; 2-DG single agent 1500 mg/kg p.o. (Days 1–14 dose 150 mg/kg) bid×5 to end)?
**A.** 28.2+/−4.6

**Q.** And the “mean day of sacrifice” value ([1]; 2-DG single agent 2000 mg/kg p.o. (Days 1–14 dose 400 mg/kg) bid×5 to end)?
**A.** 29.4+/−3.1

**Q.** What about the toxic deaths ([1]; 2-DG single agent groups) of the same molecule?
**A.** no toxic deaths

**Q.** What about the weight loss ([1]; mouse, in vivo) of the same molecule?
**A.** little weight loss

**Q.** And the deaths ([7]; 6000 mg/kg/dose group)?
**A.** One mouse died

**Q.** What about the deaths ([7]; 8000 and 9000 mg/kg/dose groups) of the same molecule?
**A.** All 5 mice died

**Q.** What about the “maximum tolerated dose (MTD)” value ([7]; mouse, in vivo) of the same molecule?
**A.** 4000 mg/kg/dose

**Q.** And the “visible signs of toxicity, multiple dose (5-day)” value [8]?
**A.** no visible signs of toxicity

**Q.** And the “toxicity, single oral dose” value ([8]; po)?
**A.** non-toxic

**Q.** What about the “visible signs of toxicity, multiple dose (5-day)” value [9] of the same molecule?
**A.** no visible signs of toxicity

**Q.** What about the “tolerability, single oral doses” value ([9]; po) of the same molecule?
**A.** well tolerated

**Q.** What about the “toxicity, single oral dose” value ([9]; po, 1 h) of the same molecule?
**A.** emesis at 1 hour but no other visible toxicity

**Q.** What about the IC50 (HT-29 colon carcinoma; 11 mM glucose medium) of the same molecule?
**A.** 9830 µM

**Q.** What about the IC50 ([3]; 11 mM glucose medium) of the same molecule?
**A.** 2620 µM

**Q.** And the effect on proliferation ([6]; 1 mM 2-DG by itself)?
**A.** no effect on proliferation by itself

**Q.** And the tumor growth (MV522 xenograft; 2-DG alone, oral, 10 days of dosing more effective than 5)?
**A.** small delay in tumor growth
